Values of other authors as cited in patent US20080161405A1, “Biguanide Composition and Method of Treatment and Prevention of Infections” (priority 2006, published 2008).
Values after ≈ are worked out from the molar mass of the structure shown.

Assays:
[1] = system: acanthamoeba cysts and trophazoites
Aspergillus keratitis = settings: 0.02%
Fusarium Keratomycosis = settings: 0.02% solution, rabbit model
Acanthamoeba keratitis = settings: case report, recurrence in the eye

Compound | minimum inhibitory concentration [1] [µg/mL] | effectiveness in experimental Aspergillus keratitis (Aspergillus keratitis) | reduction of fungal growth (Fusarium Keratomycosis) | treatment of recurrence of Acanthamoeba keratitis (Acanthamoeba keratitis)
CCCCC(CC)CNC(=N)NC(=N)NCCCCCCNC(=N)NC(=N)NCC(CC)CCCC (stereo not shown) [Alexidine, 1,1′-hexamethylene-bis[5-(2-ethylhexyl)biguanide]] | 6.3 (≈ 12.4 µM) | – | – | –
poly(hexamethylene biguanide) [polyhexamethylene biguanide] | – | moderately effective | effective at reducing fungal growth | successfully treated
